Measurements taken from patent publication EP4650353A1 (Shanghai Institute of Materia Medica, Chinese Academy of …, priority 2023, dated 2024).

Assays:
β-arrestin 1 = assay: NanoBiT recruitment of β-arrestin 1 by GLP-1R in HEK293 cells; format: cell-based, human; conditions: endogenous GLP-1 = 100%; Figure 1, n=3
Text: (§1) The Promega NanoBiT protein-protein reaction system was used to detect the recruitment of β-arrestin 1 and β-arrestin 2 by GLP-1R. The NanoBit Protein-Protein Reaction System was a dual-subunit system based on NanoLuc luciferase that could be used to detect protein-protein interactions in cells. The LgBiT (17.6 kDa) and SmBiT (11 amino acids) subunits were fused to the proteins of interest, respectively. When the proteins of interest interact, the two subunits came into close proximity to form an enzyme with catalytic activity, which could catalyze the luminescence of the luciferase substrate. Firstly, the human GLP-1R gene was connected to the N-terminus of LgBit, the β-arrestin 1/2 gene was cloned to the C-terminus of SmBit, and the fusion protein was introduced into the pcDNA3.0 vector to construct plasmids expressing hGLP-1R-LgBit and SmBit-β-arrestin 1/2 fusion proteins. The hGLP-1R-LgBit plasmid and SmBit-β-arrestin 1 (or SmBit-β-arrestin 2) plasmid were co-transfected into HEK293 cells at a ratio of 1 µg plasmid/2×10^6 cells.

β-arrestin 2 = assay: NanoBiT recruitment of β-arrestin 2 by GLP-1R in HEK293 cells; format: cell-based, human; conditions: endogenous GLP-1 = 100%; Figure 2, n=3
Text: as §1

human GLP-1 receptor = biological target: T1, human GLP-1 receptor (Homo sapiens, UniProt P43220); assay: GLP-1 receptor-mediated agonist activity: cAMP level in hGLP-1R/HEK293 cell line (HTRF); format: cell-based; conditions: cAMP levels in hGLP-1R/HEK293 cell line; Table 1; read-out: determined EC50
T1 construct: HA (N); expressed in transfected cells
T1 sequence (P43220 24-463): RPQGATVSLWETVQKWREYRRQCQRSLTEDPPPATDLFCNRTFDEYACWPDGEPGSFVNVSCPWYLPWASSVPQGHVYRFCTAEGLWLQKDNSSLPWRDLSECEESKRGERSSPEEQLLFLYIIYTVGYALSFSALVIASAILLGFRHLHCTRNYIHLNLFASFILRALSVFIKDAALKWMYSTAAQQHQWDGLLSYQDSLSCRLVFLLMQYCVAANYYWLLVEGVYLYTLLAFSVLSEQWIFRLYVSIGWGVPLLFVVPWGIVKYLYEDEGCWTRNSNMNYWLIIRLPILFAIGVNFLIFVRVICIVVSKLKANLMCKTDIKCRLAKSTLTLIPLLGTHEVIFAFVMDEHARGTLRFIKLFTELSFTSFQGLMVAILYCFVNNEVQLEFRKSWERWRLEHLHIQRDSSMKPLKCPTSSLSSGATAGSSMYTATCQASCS

[1] = system: hGLP-1 receptor knock-in mice; assay: Mouse food intake suppression experiment (compound 76-1); format: in vivo; conditions: 10 or 30 mg/kg oral
Description: (§2) Genetically engineered hGLP-1R gene knock-in mice, male, 8-10 weeks old, specific pathogen free (SPF) grade, were purchased from Biocytogen Jiangsu Gene Biotechnology Co., Ltd. All experimental animals were housed in the SPF-level environment of the National Compound Sample Library animal room, with a temperature of 24±2°C, a relative humidity of 40-60%RH, an air cleanliness level of 7, and a day and night light-dark cycle of 12h/12h; they were continuously supplied with cobalt-60 radiation-sterilized complete mouse granular feed (Shanghai Shilin Biotechnology Co., Ltd., maintenance feed for rats and mice), and were allowed to drink tap water (sterilized with high-pressure steam) without interruption, and were allowed to drink it freely. The cages were transparent polyetherimide cages (Suzhou Fengshi Experimental Animal Equipment Co., Ltd., CP-8 mouse cages), and the bedding was corn cobs (Tezhou Gumei Agricultural Technology Co., Ltd., used after high-pressure steam sterilization). There were 3-5 animals in each cage, and the cage card indicated the IACUC approval number, experiment number, experiment start time, person in charge, experimenter, animal source, group and animal number. The purchased mice were adapted to this breeding environment for at least 7 days before being used in experiments. […]

[2] = system: hGLP-1 receptor knock-in mice; assay: Long-term administration in high-fat diet fed hGLP-1R mice for weight loss; format: in vivo; conditions: ammonium salt
Description: (§3) Genetically engineered hGLP-1R gene knock-in mice, male, 8-10 weeks old, specific pathogen free (SPF) grade, were purchased from Biocytogen Jiangsu Gene Biotechnology Co., Ltd. All experimental animals were housed in the SPF-level environment of the National Compound Sample Library animal room, with a temperature of 24±2°C, a relative humidity of 40-60%RH, an air cleanliness level of 7, and a day and night light-dark cycle of 12h/12h; they were continuously supplied with cobalt-60 radiation-sterilized complete mouse granular feed (Shanghai Shilin Biotechnology Co., Ltd., maintenance feed for rats and mice), and were allowed to drink tap water (sterilized with high-pressure steam) without interruption, and were allowed to drink it freely. The cages were transparent polyetherimide cages (Suzhou Fengshi Experimental Animal Equipment Co., Ltd., CP-8 mouse cages), and the bedding was corn cobs (Tezhou Gumei Agricultural Technology Co., Ltd., used after high-pressure steam sterilization). There were 3-5 animals in each cage, and the cage card indicated the IACUC approval number, experiment number, experiment start time, person in charge, experimenter, animal source, group and animal number. The purchased mice were adapted to this breeding environment for at least 7 days before being used in experiments. The animal use methods in this study were approved by the IACUC Committee of the Shanghai Institute of Materia Medica.
The mice were weighed every day, and 24 hours after the last administration, the body fat and muscle content of the mice were detected using a Bruker desktop nuclear magnetic resonance spectrometer (model LF90II). • (4) Experimental results

hGLP-1R transgenic mice = assay: Hypoglycemic effect of compound 76-1 (oral glucose tolerance test); format: in vivo
Description: Mouse model: hGLP-1R transgenic mice, 6 female mice per experimental group.
Experimental procedure: The mice were starved overnight, and the blood sugar in the tail of the mice was measured. 30 minutes after oral administration, the blood sugar was measured again as the blood sugar at zero point. Then, 2g/kg of sugar was given orally. 15min, 30min, 60min, and 90min after sugar administration, the blood sugar was measured using a blood glucose meter.

[3] = system: hGLP-1 receptor knock-in mice; assay: Oral glucose tolerance test in mice; format: in vivo
Description: as §3
60 minutes after oral administration, blood glucose was measured again as zero-point blood glucose. Then, 2 g/kg of sugar was orally administered, and blood glucose was measured using a blood glucose meter 15 minutes, 30 minutes, 60 minutes, and 90 minutes after sugar administration. In order to explore the effect of long-term administration on glucose tolerance, 2 g/kg of sugar was orally administered again […] the administration of the compound, and the blood glucose changes were measured at 180 min, 195 min, 210 min, 240 min, and 270 min.

[4] = system: hGLP-1 receptor knock-in mice; assay: Mouse food intake suppression experiment (compound 19); format: in vivo; conditions: 30 mg/kg oral
Description: as §2

hERG potassium channels = hERG potassium channels (Homo sapiens, UniProt Q12809); assay: cell-based
Sequence of hERG potassium channels (Q12809 whole entry): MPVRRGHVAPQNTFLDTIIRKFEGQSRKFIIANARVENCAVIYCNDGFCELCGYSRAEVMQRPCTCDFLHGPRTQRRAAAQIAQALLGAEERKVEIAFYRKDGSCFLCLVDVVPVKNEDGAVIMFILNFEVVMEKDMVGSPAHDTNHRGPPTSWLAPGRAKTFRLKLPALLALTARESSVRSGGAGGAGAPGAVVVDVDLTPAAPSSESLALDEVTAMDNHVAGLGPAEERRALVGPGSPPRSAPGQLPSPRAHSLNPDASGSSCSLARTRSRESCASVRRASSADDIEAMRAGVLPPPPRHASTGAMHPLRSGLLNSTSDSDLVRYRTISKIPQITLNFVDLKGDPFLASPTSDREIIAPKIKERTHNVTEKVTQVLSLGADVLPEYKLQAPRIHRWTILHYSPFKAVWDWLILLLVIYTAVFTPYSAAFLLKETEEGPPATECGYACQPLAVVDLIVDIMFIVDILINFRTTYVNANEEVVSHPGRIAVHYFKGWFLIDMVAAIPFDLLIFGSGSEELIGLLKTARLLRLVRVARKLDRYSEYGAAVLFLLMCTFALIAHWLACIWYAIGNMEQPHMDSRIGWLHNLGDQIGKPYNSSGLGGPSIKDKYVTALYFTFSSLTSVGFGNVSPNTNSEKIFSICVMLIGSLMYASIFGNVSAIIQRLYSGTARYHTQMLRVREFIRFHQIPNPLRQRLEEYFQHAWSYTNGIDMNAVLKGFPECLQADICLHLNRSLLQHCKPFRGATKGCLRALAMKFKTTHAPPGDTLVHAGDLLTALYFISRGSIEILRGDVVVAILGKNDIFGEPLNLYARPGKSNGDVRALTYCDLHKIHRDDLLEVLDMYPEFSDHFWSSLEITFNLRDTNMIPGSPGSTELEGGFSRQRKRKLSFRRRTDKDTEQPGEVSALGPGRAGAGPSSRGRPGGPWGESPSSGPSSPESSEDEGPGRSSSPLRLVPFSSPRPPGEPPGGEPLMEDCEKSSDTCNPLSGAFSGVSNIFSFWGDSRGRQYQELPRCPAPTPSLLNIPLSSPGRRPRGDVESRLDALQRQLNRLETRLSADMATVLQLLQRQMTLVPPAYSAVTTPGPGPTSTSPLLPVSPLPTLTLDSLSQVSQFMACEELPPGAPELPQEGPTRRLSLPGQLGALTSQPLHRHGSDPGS
Description: CHO cells expressing hERG protein were cultured in 175 cm^2 culture flasks. When the cell density grew to 60-80%, the culture medium was removed, the cells were washed once with 7 mL PBS, and then 3 mL Detachin was added for digestion. After digestion was complete, 7 mL of culture medium was added to neutralize, then centrifuged. The supernatant was aspirated, and 5 mL of culture medium was added to resuspend to ensure that the cell density is 2-5×10^6/mL.
Both the single-cell high-impedance sealing and whole-cell mode formation processes were automatically completed by the Qpatch instrument. After obtaining the whole-cell recording mode, the cell was clamped at -80 mV. Before a 5-second +20 mV depolarizing stimulus was given, a 50-ms -50 mV pre-voltage was given, and then the cell was repolarized to -50 mV for 5 seconds and then returned to -80 mV. This voltage stimulation was applied every 15 seconds. After recording for 2 minutes, the extracellular solution was recorded for 2 minutes. Then the drug administration process began. The compound concentration started from the lowest tested concentration. Each tested concentration was given for 2 minutes. […] At least three cells were tested for each concentration (n≥3).
The compound stock solution was diluted with extracellular fluid, 5 µL of 20 mM compound stock solution was added to 2495 µL extracellular fluid, diluted 500 times to 40 µM, and then serially diluted 3 times in extracellular fluid containing 0.2% DMSO (v/v) to obtain the final concentration to be tested.
The experimental data were analyzed by XLFit software.

| Structure (SMILES) | maximum agonistic effect (Emax) recruiting β-arrestin 1 (β-arrestin 1) | maximum agonistic effect (Emax) recruiting β-arrestin 2 (β-arrestin 2) | EC50 (human GLP-1 receptor) | effect on food intake compared with positive control PF-06882961 ammonium salt at the same dose [1] | food intake ([1]; ammonium salt, within 0 to 12 hours, fasted 6 h) | weight gain of HFD-fed mice ([2]; 30 mg/kg by gavage once a day, 15 days) | reduce body weight compared with the blank control group ([2]; 30 mg/kg once a day, after 15 days of administration, HFD) | body fat and lean (muscle) content change trend in HFD mice ([2]; 30 mg/kg, after 15 days of administration) | area under the blood glucose curve (AUC) (hGLP-1R transgenic mice; ammonium salt, 0.1, 0.3 mg/kg oral) | blood glucose level (hGLP-1R transgenic mice; ammonium salt, 0.1, 0.3 mg/kg oral, 30 min before 2 g/kg sugar) | effective dose (hGLP-1R transgenic mice; ammonium salt, oral, oral glucose tolerance test) | effect compared with positive control PF-06882961 ammonium salt at the same dose ([3]; 1 mg/kg oral, oral glucose tolerance test) | lowering blood sugar in long-term oral glucose tolerance test ([3]; ammonium salt, 1 mg/kg oral, second sugar load 240 min after administration, AUC(180-270), vs PF-06882961 ammonium salt) | blood glucose area under the curve ([3]; ammonium salt, orally administered at 1 mg/kg, AUC(0-90), vs blank control) | blood glucose concentration ([3]; ammonium salt, orally administered at 1 mg/kg, vs blank control) | effect on food intake compared with positive control PF-06882961 ammonium salt at the same dose [4] | food intake ([4]; ammonium salt, within 0 to 12 hours after administration) | IC50 (hERG potassium channels) |
| --- | --- | --- | --- | --- | --- | --- | --- | --- | --- | --- | --- | --- | --- | --- | --- | --- | --- | --- |
| CC[C@H](C)[C@H](NC(=O)[C@H](Cc1ccccc1)NC(=O)[C@H](CCC(=O)O)NC(=O)[C@H](CCCCN)NC(=O)[C@H](C)NC(=O)[C@H](C)NC(=O)[C@H](CCC(N)=O)NC(=O)CNC(=O)[C@H](CCC(=O)O)NC(=O)[C@H](CC(C)C)NC(=O)[C@H](Cc1ccc(O)cc1)NC(=O)[C@H](CO)NC(=O)[C@H](CO)NC(=O)[C@@H](NC(=O)[C@H](CC(=O)O)NC(=O)[C@H](CO)NC(=O)[C@@H](NC(=O)[C@H](Cc1ccccc1)NC(=O)[C@@H](NC(=O)CNC(=O)[C@H](CCC(=O)O)NC(=O)[C@H](C)NC(=O)[C@@H](N)Cc1c[nH]cn1)[C@@H](C)O)[C@@H](C)O)C(C)C)C(=O)N[C@@H](C)C(=O)N[C@@H](Cc1c[nH]c2ccccc12)C(=O)N[C@@H](CC(C)C)C(=O)N[C@H](C(=O)N[C@@H](CCCCN)C(=O)NCC(=O)N[C@@H](CCCNC(=N)N)C(N)=O)C(C)C [GLP-1] | 100% | 100% |  |  |  |  |  |  |  |  |  |  |  |  |  |  |  |  |
| [2H]C([2H])([2H])C([2H])([2H])Oc1cc(C(=O)O)cc2c1nc(CN1CCN(c3cccc4c3O[C@@](C)(c3ccc(Cl)cc3F)O4)C=N1)n2C[C@@H]1CCO1 [Compound 76-1, 2-((4-((S)-2-(4-chloro-2-fluorophenyl)-2-methylbenzo[d][1,3]dioxol-4-yl)-5,6-dihydro-1,2,4-triazin-1(4H)-yl)methyl)-4-(ethoxy-d5)-1-(((S)-oxetan-2-yl)methyl)-1H-benzo[d]imidazole-6-carboxylic acid] |  |  | 0.0016 nM | better than the positive control PF-06882961 ammonium salt | significantly inhibit the food intake | effectively inhibit the weight gain | 20.4% | effectively inhibit this change trend | dose-dependently reduce | dose-dependently reduce | ≤ 0.1 mg/kg |  |  |  |  |  |  |  |
| COc1cc(C(=O)O)cc2c1nc(CN1CCC(c3cccc(OCc4ccc(Cl)cc4F)n3)CC1)n2C[C@@H]1CCO1 [Compound 19, (S)-2-((4-(6-((4-chloro-2-fluorobenzyl)oxy)pyridin-2-yl)piperidin-1-yl)methyl)-4-methoxy-1-(oxetan-2-ylmethyl)-1H-benzo[d]imidazole-6-carboxylic acid] |  |  | 0.0026 nM |  |  |  |  |  |  |  |  | better than the positive control PF-06882961 ammonium salt | more significant effect in lowering blood sugar | significantly reduce | significantly reduce | better than the positive control PF-06882961 ammonium salt | significantly inhibit the food intake | 12500 nM |
